Test results: US20220395542A1, “Nutritional Compositions for Treating a Clostridium Difficile Infection” (ABBOTT LABORATORIES, priority 2019, published 2022)

Test system: C. difficile
Assay: in vitro gut digestion and fermentation model (SHIME PathoGut) assessing CDI and CDI recurrence
Assay type: cell-based, Clostridium difficile
Conditions: control experiments (FIGS. 1 and 2); vancomycin 125 mg/L three times per day for seven days after the 4 weeks of CDI

With `CN[C@H](CC(C)C)C(=O)N[C@H]1C(=O)N[C@@H](CC(N)=O)C(=O)N[C@H]2C(=O)N[C@H]3C(=O)N[C@H](C(=O)N[C@H](C(=O)O)c4cc(O)cc(O)c4-c4cc3ccc4O)[C@H](O)c3ccc(c(Cl)c3)Oc3cc2cc(c3O[C@@H]2O[C@H](CO)[C@@H](O)[C@H](O)[C@H]2O[C@H]2C[C@](C)(N)[C@H](O)[C@H](C)O2)Oc2ccc(cc2Cl)[C@H]1O` [vancomycin] the CD cell count was “below detectable levels”.
